Read-outs that look alike come from different tables or passages of the source.
Legend:
[1] = system: arginine production; conditions: cited from earlier work; for % Relative Arginine Increase: published data, CaNO3 as baseline
[2] = system: Phytophthora; conditions: cited from earlier work
[3] = system: Verticillium; conditions: cited from earlier work
[4] = system: microscopic soil eelworms (nematodes); assay: Strawberry bed drip irrigation test against methyl bromide, soil eelworms at 12 inch depth; format: in vivo; conditions: methyl bromide in pre-wetted beds
From the text: As a result of the before mentioned strawberry bed weed responses, the 70/30 composition was compared directly with methyl bromide (MB) during the California Strawberry Commission's annual testing for alternatives to the ozone negative pesticide, which is scheduled to be 70% banned by 2003. Our chosen objective was to replace pre-banded “slow release” nitrogen with stabilized urea/calcium cyanamide compositions at a similar cost per acre and see if we could attain reduction of weeds and diseases similar to methyl bromide.
The urea/calcium cyanamide composition was applied to pre-wetted and preformed beds through drip irrigation tubes, typically 2 of which are laid inside of where two rows of berry plants will be planted on the outside bed edges. Applications of 100 lbs/acre were compared where the calcium cyanamide composition was applied over 1 hour and 2 hour periods to vary the depth and width of its distribution.
Soil samples, taken at a depth of 12″ in bed centers, were sent for analysis by the Commission. […] It is assumed that the pre-wetting of soil required for bed shaping, caused restricted movement of the methyl bromide gas through the soil.

[5] = system: weeds; conditions: cited from earlier work
[6] = system: microscopic eelworms (nematodes); assay: Inventor Study, WSU: nematode reduction in vitro
From the text: For comparison, results of some prior art studies using dry CaNCN application, liquid molecular cyanamide applications, and the results of an experiment using dicyandiamide are also included in Table 10.

[7] = system: Meloidogyne chitwoodi J2 larvae; assay: Meloidogyne chitwoodi J2 larvae killed after application in irrigation water; format: in vivo
From the text: This example was done under consultation with Washington State University. Agricultural plots were identified in Washington State.

[8] = about 25° C.; cited from earlier work
[9] = system: microscopic eelworms (nematodes); conditions: not hydrolyzed, cited from earlier work
[10] = system: corn; assay: Crop yield after cornfield application; format: in vivo; conditions: nitrogen 160 lbs/acre for ammonia
From the text: Nitrate leaching after cornfield applications of 0.5% and 1% heterogeneous calcium cyanamide core/urea shell granules was also followed.

[11] = Aerobic dissolution activity, visual observation in open glasses of water; format: physicochemical; set-up: White grainy deposit / White rhombic froth / Reactivity/floating / Calcium settlements / Meniscus (white): scale not given here; conditions: for Calcium settlements / Evaporation / Meniscus (white) / Particles dissolved / Reactivity/floating / White grainy deposit / White rhombic froth: open air; for pH: open air water solutions
Protocol: Calcium cyanamide fines, homogeneous calcium cyanamide granules, heterogeneous calcium cyanamide/urea granules, calcium cyanamide granules, and urea were added to equal amounts of water in separate glasses and observed over time. Table 12 is a summary of those visual observations and highlights the vast differences between the aerobic dissolution properties and the chemical reactions over time of open air water solutions of CaNCN granules (1), CaNCN fines (2), homogeneous CaNCN/urea granules formed by melting together CaNCN fines and urea (3), heterogeneous CaNCN/urea granules with a calcium cyanamide core and a urea shell (4), and urea (5).

[12] = system: microscopic eelworms (nematodes); conditions: 100 lbs/acre, hydrolyzed + urease, In vitro; cited from earlier work
[13] = system: Coliform; assay: Coliform numbers in parlor wash manure with 0.2% CaNCN; format: cell-based; conditions: below about 0.2% by weight in manure, within 24-120 hrs
[14] = system: lettuce seed; assay: Seed emergence in band drenched lettuce and broccoli plots; format: in vivo; conditions: aqueous composition of calcium cyanamide alone as a drench
Protocol: Yet another test was conducted on lettuce and broccoli plots. […] The rates expressed relevant to strawberry bands were 8 lbs and 16 lbs of nitrogen per acre. […] However, where the drench was allowed to dry for several days before sprinkling, the lettuce seed emergence was reduced 100%. […]

[15] = system: microscopic eelworms (nematodes); conditions: 600-1200 lbs/acre, not hydrolyzed, Field Soil, dry; cited from earlier work
[16] = shank injected and tarped, 350 lbs/acre
[17] = dry incorporated, 1,000 lbs./acre

Row | SMILES | % Relative Arginine Increase [1] [%] | Calcium settlements ([11]; 1 hour) | Evaporation ([11]; 1 hour) | Meniscus (white) ([11]; 1 hour) | Particles dissolved ([11]; 1 hour) | Reactivity/floating ([11]; 1 hour) | White grainy deposit ([11]; 1 hour) | White rhombic froth ([11]; 1 hour) | Calcium settlements ([11]; 24 hours) | Evaporation ([11]; 24 hours) | Meniscus (white) ([11]; 24 hours) | Particles dissolved ([11]; 24 hours) | Reactivity/floating ([11]; 24 hours) | White grainy deposit ([11]; 24 hours) | White rhombic froth ([11]; 24 hours) | Calcium settlements ([11]; 30 days) | Evaporation ([11]; 30 days) | Meniscus (white) ([11]; 30 days) | Particles dissolved ([11]; 30 days) | Reactivity/floating ([11]; 30 days) | also measured
1 | O=[N+]([O-])[O-].O=[N+]([O-])[O-].[Ca+2] [CaNO3-baseline, calcium nitrate] | 0 |  |  |  |  |  |  |  |  |  |  |  |  |  |  |  |  |  |  |  | 
2 | CBr [methyl bromide, reference compound] |  |  |  |  |  |  |  |  |  |  |  |  |  |  |  |  |  |  |  |  | reduction of Phytophthora [2, 16]: 100%; reduction of Verticillium [3, 16]: 73%; reduction of microscopic soil eelworms (nematodes) [4]: completely ineffective; weeds reduced ([5]; shank injected followed by tarping, 350 lbs/acre): 85%
3 | [Na+].[OH-] [NaOH, sodium hydroxide] |  |  |  |  |  |  |  |  |  |  |  |  |  |  |  |  |  |  |  |  | Nematode Reduction ([6]; 35 lbs/acre in tap water, pH = 10, In vitro): 99%; Final pH ([7]; 35 lbs/acre at 1/2 inch depth): 10.6; J2 nema - % killed ([7]; 35 lbs/acre at 1/2 inch depth): 98.6%; Final pH ([7]; 70 lbs/acre at 1/2 inch depth): 11.4; J2 nema - % killed ([7]; 70 lbs/acre at 1/2 inch depth): 100%; Final pH ([7]; 105 lbs/acre at 1/2 inch depth): 11.7; J2 nema - % killed ([7]; 105 lbs/acre at 1/2 inch depth): 100%
4 | N#CN [H2NCN liquid, molecular cyanamide] |  |  |  |  |  |  |  |  |  |  |  |  |  |  |  |  |  |  |  |  | acid dissociation constant [8]: about 5.42×10^−11; stimulation of arginine production relative to urea ([1]; in plants): 20 times; Nematode Reduction ([9]; 112 lbs/acre, In vitro): 100%
5 | N [Ammonia] |  |  |  |  |  |  |  |  |  |  |  |  |  |  |  |  |  |  |  |  | Yield ([10]; Field 1, 120 lbs/acre for granules): 180 bushel/acre; Yield ([10]; Field 2, 120 lbs/acre for granule): 177 bushel/acre
6 | [Ca+2].[N-]=C=[N-] [(2)Fines, calcium cyanamide] |  | 0 | 0 | 0 | 2 | 1 | 0 | 0 | 10 | 0 | 8 | 7 | 10 | 0 | 0 | 10 | 5 | 9 | 8 | 10 | White grainy deposit ([11]; 30 days): 6; White rhombic froth ([11]; 30 days): 0; pH [11]: (2)Fines(12)
7 | N#CN=C(N)N [Dicyan-Diamide, dicyandiamide, reference compound] |  |  |  |  |  |  |  |  |  |  |  |  |  |  |  |  |  |  |  |  | Nematode Reduction ([6]; 102 lbs/acre in distilled water, pH = 8, In vitro): 0%
8 | NC(N)=O [Urea, urea, reference compound] | 69 | 0 | 0 | 0 | 0 | 0 | 0 | 0 | 0 | 0 | 0 | 9 | 0 | 0 | 0 | 0 | 4 | 0 | 10 | 0 | Nematode Reduction [12]: 100%; White grainy deposit ([11]; 30 days): 0; White rhombic froth ([11]; 30 days): 0; pH [11]: (5)Urea(8)
9 | [Ca+2].[N-]=C=[N-] [CaNCN, calcium cyanamide] | 639 |  |  |  |  |  |  |  |  |  |  |  |  |  |  |  |  |  |  |  | reduction of Phytophthora [2, 17]: 0%; reductions in coliform bacteria [13]: 99.999%; reduction of Verticillium [3, 17]: 8%; Nematode Reduction ([6]; 9 lbs/acre in distilled water, hydrolyzed, pH = 12.6, In vitro): 100%; Nematode Reduction ([6]; 29 lbs/acre in tap water, hydrolyzed, pH = 10, In vitro): 0%; lettuce seed emergence reductions ([14]; 5 lbs CaNCN N/acre): 85%; lettuce seed emergence reductions ([14]; 10 lbs CaNCN N/acre): 100%; Nematode Reduction [15]: 0%; weeds reduced ([5]; dry surface incorporation of 1000 lbs/acre followed by 0.5 acre inch sprinkler water): 95%; Nematode Reduction ([9]; 1200-2400 equiv. lbs/acre, Wet pot soil): 41-66%; Nematode Reduction ([9]; 1200-2400 lbs/acre, Dry): 4-8%; Nematode Reduction ([9]; 1200-2400 lbs/acre, Wet): 42-54%
10 | [Ca+2].[N-]=C=[N-] [(1)Granules, calcium cyanamide] |  | 0 | 0 | 0 | 0 | 0 | 0 | 0 | 0 | 0 | 0 | 2 | 2 | 0 | 0 | 1 | 5 | 1 | 2 | 4 | White grainy deposit ([11]; 30 days): 2; White rhombic froth ([11]; 30 days): 0; pH [11]: (1)Granules(12)

Reference: patent US7785388B2, “Method for producing stabilized nitrogen compositions” (priority 1999, dated 2010)
